Experimental data from patent publication US20230253066A1, “DESIGNED PROTEINS FOR LIGAND BINDING” (The Regents of the University of California, priority 2020, published 2023).

Target: ABLE
Test: Fluorescence anisotropy ligand competition on ABLE (displacement of apixaban-peg-FITC)
Assay type: binding
Experimental: We performed fluorescence anisotropy experiments (54, 55) of ABLE and LABLE using a FITC fluorophore conjugated to apixaban as the fluorescent probe (FIGS. 512A-512D and Scheme 1). We serially diluted a concentrated protein solution containing 25 nM Apx-peg-FITC, holding constant the concentration of Apx-peg-FITC. Parallel and perpendicularly polarized emission at 528 nm (10 nm slit width, 510 nm long pass filter) were integrated for 10 seconds after 485 nm (5 nm slit width) excitation of the FITC fluorophore of Apx-peg-FITC. The data were fit to a single-site binding model (Equation 2, with N=1) (FIG. S12B). We performed ligand competition experiments (54, 55) by adding aliquots of a concentrated ligand stock in DMSO into an approximately 50% bound complex of protein and Apx-peg-FITC (25 nM). The decrease in anisotropy as a function of competing ligand was fit to a competitive binding model (54, 55) (FIG. 4D and FIG. S12C and FIG. S12D). Because effects of DMSO on the anisotropy of bound ABLE/Apx-peg-FITC complex become more pronounced at high concentrations of DMSO (>4%), we fit only the initial data points at low DMSO concentration (% DMSO <2%, FIG. 4D). […] DMSO may have a minor effect on competitive binding with weaker competitors (i.e., apixabanCOO^− and rivaroxaban), where high concentrations of competitor are needed to decrease anisotropy. As such, the reported dissociation constants of these weaker competitors can be viewed as a lower limit to the KD. Fluorescence polarization competition with apixaban as competitor gives a KD of 7 (±1) μM for the apixaban/ABLE complex (FIG. 4D), which agrees with that of the more precise spectral titration [KD=5 (±1) μM]. Binding experiments were performed at least twice to confirm reproducibility, and the reported errors correspond to the uncertainty in the fit parameters.

Kd (ABLE 20 μM, apixaban-peg-FITC 25 nM, 50 mM NaPi, 100 mM NaCl, pH 7.4, fit of initial points at DMSO <2%, KD of weaker competitors viewed as lower limit, read-out: KD of competing ligand for ABLE, competitive binding model) | fold tighter binding to ABLE than rivaroxaban (fluorescence polarization competition, FIG. 4D) | binding to ABLE (in words) (competition with apixaban-peg-FITC) | Structure (SMILES)
7 µM | 20 fold | – | COc1ccc(-n2nc(C(N)=O)c3c2C(=O)N(c2ccc(N4CCCCC4=O)cc2)CC3)cc1 [apixaban]
– | – | only very weak binding | O=C(NC[C@H]1CN(c2ccc(N3CCOCC3=O)cc2)C(=O)O1)c1ccc(Cl)s1 [rivaroxaban]
